The values below come from patent publication US10806794B2, “Protease inhibitors having enhanced features” (priority 2008, dated 2020).

A short description of series [1]: Metabolic stability in cryopreserved human hepatocytes. Conditions: human, cryopreserved human hepatocytes, CLint ± SEM, human hepatocytes, 3 uM, incubated up to one hour. The procedure, abridged:
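Test compounds at 0.1 μM or 3 μM incubated with cryopreserved human hepatocytes at 0.5×10^6 viable cells/mL. Sampling up to four hours (0.1 μM) or one or two hours (3 μM), methanol quench, then remaining parent measured by cassette LC-MS/MS.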

A short description of series [2]: Metabolic stability in Sprague-Dawley rat hepatocytes. Particulars: for hepatocyte CLint at 0.1 μM: read-out: Clint ± SEM. It counts as in vitro ADME.
Series [3] can be described thus: Metabolic stability in beagle dog hepatocytes. It counts as in vitro ADME. Conditions: for hepatocyte CLint at 0.1 μM: read-out: Clint ± SEM.
A short description of series [4]: Microsomal protein binding by equilibrium dialysis. It counts as in vitro ADME. Particulars: human liver microsomes, read-out: Microsomal Protein Binding Fu ± SD. The procedure, abridged: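 Compound at 3 μM final in buffer with or without human liver microsomes, dialysed to equilibrium at 37 °C. Both sides quantified by LC-MS/MS to derive fraction unbound (Fu).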
In general terms: In equilibrium dialysis free small molecules cross a membrane that holds back macromolecules.

Series [5] can be described thus: Plasma protein binding by equilibrium dialysis, rat plasma. It counts as in vitro ADME. Particulars: read-out: Rat Plasma Protein Binding Fu ± SD. On the procedure:
(§1) In assays to estimate binding of test compounds to plasma proteins, test compound solutions (5 μM) are prepared in buffer and species-specific plasma (final DMSO concentration 0.5%). The plasma-containing solution is added to one side of the membrane of an equilibrium dialysis system, and the plasma-free is added to the other side. Dialysis was allowed to reach equilibrium by incubation for two hours at 37° C. The concentration of compound on both sides of the membrane was measured using LC-MS/MS.

A short description of series [6]: Plasma protein binding by equilibrium dialysis, dog plasma. It counts as in vitro ADME. Conditions: read-out: Dog Plasma Protein Binding Fu ± SD. On the procedure:
as §1

The nature of series [7]: Plasma protein binding by equilibrium dialysis, monkey plasma. Particulars: read-out: Monkey Plasma Protein Binding Fu ± SD. It counts as in vitro ADME. As to the method:
as §1

The nature of series [8]: Plasma protein binding by equilibrium dialysis, mouse plasma. It counts as in vitro ADME. Particulars: read-out: Mouse Plasma Protein Binding Fu ± SD. On the procedure: as §1
The next series concerns the target CYP2C9 (Homo sapiens (Human), UniProt P11712). The series is described as follows: biochemical.
A further series has as its target CYP3A4 (Homo sapiens (Human), UniProt P08684). The series is described as follows: Metabolic stability in CYP3A4-expressing Bactosomes. It counts as in vitro ADME. Particulars: 5 μM. On the procedure:
Compounds were evaluated for their propensity to act as substrates of individual human cytochrome P450 enzymes using a bacterial membrane preparation co-expressing human NADPH-cytochrome P450 reductase with either human CYP3A4 or CYP2D6 (Bactosomes™ Cypex, Ltd., Dundee, UK). In vitro metabolism studies using Bactosomes™ expressing individual human CYP isoforms monitor the extent to which a test compound is metabolized by a single CYP450 enzyme and allow identification of the CYP isoforms that may be responsible for the metabolism of a test compound. Timecourse analyses of test molecules (5 μM) with CYP2D6- or CYP3A4-expressing Bactosomes™ (100 pmol/mL) are performed in buffer (0.1 M phosphate, pH 7.4) in a final reaction volume of 25 μL. […] Reactions are terminated by the addition of methanol (50 μL) containing internal standard at 0, 5, 15, 30, and 45 minutes.

The test system of another series is CEM-SS cells. As to the method: To evaluate whether conjugated protease inhibitors retain the ability to protect against HIV-1 infection, CEM-SS cells infected with the RF strain of HIV-1 were treated with test compounds for six days, and then cell viability was monitored using the tetrazolium dye XTT. […] A value for Therapeutic Index (TI) was calculated as TC50/EC50.

A short description of series [9]: Metabolic stability in cynomolgus monkey hepatocytes. It counts as in vitro ADME. Particulars: cynomolgus monkey.

Sequence of CYP3A4 (P08684 whole entry, canonical isoform): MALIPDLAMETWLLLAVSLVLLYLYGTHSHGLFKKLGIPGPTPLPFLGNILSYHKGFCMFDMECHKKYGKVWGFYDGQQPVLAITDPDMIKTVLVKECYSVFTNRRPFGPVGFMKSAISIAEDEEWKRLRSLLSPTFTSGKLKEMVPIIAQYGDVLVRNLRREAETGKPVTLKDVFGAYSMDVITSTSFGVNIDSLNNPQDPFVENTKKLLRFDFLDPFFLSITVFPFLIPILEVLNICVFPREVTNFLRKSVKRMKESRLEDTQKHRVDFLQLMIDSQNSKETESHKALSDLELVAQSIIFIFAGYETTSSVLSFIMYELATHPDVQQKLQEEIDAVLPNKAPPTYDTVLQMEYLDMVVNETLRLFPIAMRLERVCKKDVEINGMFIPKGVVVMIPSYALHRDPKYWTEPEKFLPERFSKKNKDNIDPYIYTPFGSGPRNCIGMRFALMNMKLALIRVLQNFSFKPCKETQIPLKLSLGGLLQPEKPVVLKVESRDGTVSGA
Sequence of CYP2C9 (P11712 whole entry): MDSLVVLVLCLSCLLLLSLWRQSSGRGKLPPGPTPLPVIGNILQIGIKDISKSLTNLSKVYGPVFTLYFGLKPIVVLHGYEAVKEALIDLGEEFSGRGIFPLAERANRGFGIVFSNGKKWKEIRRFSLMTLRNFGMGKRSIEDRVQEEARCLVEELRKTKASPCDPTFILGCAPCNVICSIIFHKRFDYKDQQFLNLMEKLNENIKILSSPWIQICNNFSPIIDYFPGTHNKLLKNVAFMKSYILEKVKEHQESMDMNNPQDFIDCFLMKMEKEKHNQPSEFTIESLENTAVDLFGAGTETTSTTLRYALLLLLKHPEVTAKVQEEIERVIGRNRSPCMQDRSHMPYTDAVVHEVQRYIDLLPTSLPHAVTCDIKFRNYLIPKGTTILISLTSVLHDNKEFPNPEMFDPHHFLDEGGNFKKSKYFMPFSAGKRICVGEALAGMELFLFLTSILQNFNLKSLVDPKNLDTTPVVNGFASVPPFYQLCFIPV

Compound `COC(=O)N[C@H](C(=O)N[C@@H](Cc1ccccc1)[C@@H](O)CN(Cc1ccc(-c2ccccn2)cc1)NC(=O)[C@@H](NC(=O)OC)C(C)(C)C)C(C)(C)C` [Atazanavir, reference compound] gave a hepatocyte CLint at 3 μM in series [1] of 5.15 ± 1.13 µL/min/1e6 cells. Further, the half-life (usually how long it takes for the measured level to halve) at 0.1 μM in series [2] turned out to be 0.228 h; in series [3], 12.6 h. Further, the values for the hepatocyte CLint at 0.1 μM in series [2] and in [3] were 101 ± 0.00802 µL/min/1e6 cells and 1.83 ± 0.000561 µL/min/1e6 cells, respectively. Also, the fraction unbound at 3 μM in series [4] is 0.846 ± 0.0308. Also, the fraction unbound at 2 h, 5 μM in series [5] was found to be 0.079 ± 0.00684; in series [6] it was 0.139 ± 0.0167; in series [7], 0.201 ± 0.0183; in [8], 0.0574 ± 0.00286. Moreover, at CYP2C9, the IC50 (as a rule, the concentration that inhibits the measured activity by half) came to 10.3 µM.

On to `COCCOCCOCCOCCOCCNc1ccc(S(=O)(=O)N(CC(C)C)CC(O)[C@H](Cc2ccccc2)NC(=O)O[C@H]2CO[C@H]3OCC[C@H]32)cc1` (stereo partly drawn) [mPEG5-N-Darunavir], for which the “3A4 t1/2 ± SEM” value at CYP3A4 is 0.623 ± 0.0797 h.

As to `COCCOCCOCCOCCOCCOCCOCCNc1ccc(S(=O)(=O)N(CC(C)C)CC(O)[C@H](Cc2ccccc2)NC(=O)O[C@H]2CO[C@H]3OCC[C@H]32)cc1` (stereo partly drawn) [mPEG7-N-Darunavir], the “3A4 t1/2 ± SEM” value at CYP3A4 was 0.232 ± 0.032 h.

Consider `COCCOC(=O)NC(C(=O)NC(Cc1ccccc1)C(O)CN(Cc1ccc(-c2ccccn2)cc1)NC(=O)C(NC(=O)OC)C(C)(C)C)C(C)(C)C` (stereo not drawn) [mono-mPEG1-Atazanavir], for which the “CEM-SS TC50 ± SD” value in the series on CEM-SS cells turned out to be 49.1 ± 6.4 µM.

As for `COCCOCCOCCOC(=O)NC(C(=O)NC(Cc1ccccc1)C(O)CN(Cc1ccc(-c2ccccn2)cc1)NC(=O)C(NC(=O)OC)C(C)(C)C)C(C)(C)C` (stereo not drawn) [mono-mPEG3-Atazanavir, {1-[N′-[2-Hydroxy-3-(2-{2-[2-(2-methoxy-ethoxy)-ethoxy]-ethoxycarbonylamino}-3,3-dimethyl-butyrylamino)-4-phenyl-butyl]-N′-(4-pyridin-2-yl-benzyl)-hydrazinocarbonyl]-2,2-dimethyl-propyl}-carbamic Acid Methyl Ester], the values for the half-life at 0.1 μM in series [9], in series [2] and in series [3] were 1.66 h, 1.95 h and 1.43 h, respectively. For the same compound, the hepatocyte CLint at 0.1 μM in series [9] (read-out: Clint ± SEM) is 13.9 ± 0.904 µL/min/1e6 cells; in series [2] it was 11.9 ± 0.00223 µL/min/1e6 cells; in series [3] it was 16.1 ± 0.000914 µL/min/1e6 cells. The fraction unbound at 3 μM in [4] stood at 0.852 ± 0.0495. Moreover, the fraction unbound at 2 h, 5 μM came out at 0.138 ± 0.0104 in [5], 0.252 ± 0.0397 in series [6], 0.204 ± 0.196 in series [7] and 0.159 ± 0.0161 in series [8]. The IC50 at CYP2C9 was 24.6 µM.

`COCCOCCOCCOCCOCCOCCOCCOC(=O)NC(C(=O)NC(Cc1ccccc1)C(O)CN(Cc1ccc(-c2ccccn2)cc1)NC(=O)C(NC(=O)OC)C(C)(C)C)C(C)(C)C` (stereo not drawn) [mono-mPEG7-Atazanavir]: the “CEM-SS TC50 ± SD” value in the series on CEM-SS cells is 133.8 ± 24.5 µM.
